Among the data in US7745450B2, “Pyrazolo[4,3-d]pyrimidines, processes for their preparation and methods for therapy” (Institute of Experimental Botany, priority 2002, dated 2010) are IC50 values, retold here.

Experiment [1] concerns the target cdk1/cyclin B (CDC2) (Homo sapiens, UniProt P06493). Kind of experiment: CDK inhibition assay, cdk1/cyclin B (CDC2) kinase, histone phosphorylation. The class given is biochemical. On the procedure:
Selected compounds were tested for cdk1/cyclin B and cdk2/cyclin E inhibitory activity to determine the basic relationships between their interaction energy of docked complex and the inhibitory activity. Cdk2/cyclin E complex was produced in SIP insect cells co-infected with appropriate baculoviral construct. The cells were harvested 70 hours post infection in lysis buffer (50 mM Tris 7.4 pH, 150 mM NaCl, 5 mM EDTA, 20 mM NaF, 1% Tween 20, protease inhibitors) for 30 min on ice and the soluble fraction was recovered by centrifugation at 14.000 g for 10 min. The protein extract was stored at −80° C. until use. The final point test system for kinase activity measurement was used to carry out experiments on the kinetics under linear conditions. The assay mixture contained 1 mg/ml histone (Sigma Type III-S), 15 μM ATP, 0.2 μCi [γ-^32P] ATP and tested compound in a final volume of 20 μl, all in reaction buffer: 50 mM Hepes 7.4 pH, 10 mM MgCl2, 5 mM EGTA, 10 mM 2-glycerolphosphate, 1 mM NaF, 1 mM DTT and protease inhibitors. […] The measurement of kinase inhibition employed the digital imaging analyzer BAS 1800. The kinase activity was expressed as a percentage of maximum activity and the IC50 value was determined by graphic analysis. The kinase activity is expressed as a percentage of maximum activity, the apparent inhibition constants are determined by graphic analysis from dose-response curves presented on FIG. 1.

The target in experiment [2] is IκB-α kinase. Kind of experiment: IκB-α kinase inhibition, in vitro kinase assay. The class given is biochemical.
Experiment [3] concerns Cytokinin-dependent tobacco callus Nicotiana tabacum L. cv. Wisconsins 38. As to the kind of experiment: Tobacco callus bioassay for cytotoxicity (herbicidal activity). Format: cell-based. The conditions noted are these: Nicotiana tabacum, 672 h. On the procedure:
The novel compounds have also been tested in tobacco callus bioassay for cytotoxicity (herbicidal activity) and induction of cell death. The compounds to be tested were dissolved in dimethylsulfoxide (DMSO) and the solution brought up to 10^−3 M with distilled water. […] Cytokinin-dependent tobacco callus Nicotiana tabacum L. cv. Wisconsins 38 Murashige-Skoog medium, containing per 1 liter: 4 μmol nicotinic acid, 2.4 μmol pyridoxine hydrochloride, 1.2 μmol thiamine, 26.6 μmol glycine, 1.37 μmol glutamine, 1.8 μmol myo.inositol, 30 g of sucrose, 8 g of agar, […] α-naphthylacetic acid and 0.5 μmol 6-benzylaminopurine. Sub cultivation was carried out every three weeks. Fourteen days before the bioassay, the callus tissue was transferred to the media without 6-benzylaminopurine. Compounds were tested with two different concentrations of 6-benzylaminopurine (10^−5 M and 10^−6 M). Inhibitory growth activity was determined from the increase in fresh callus weight after four weeks of cultivation. Five replicates were prepared for each concentration tested and the entire test was repeated at least twice.

Where [4] appears, read: read-out: 10^−5 M BAP IC50, 10^−5 M 6-benzylaminopurine, four weeks.
The mark [5] stands for this setting: read-out: 10^−6 M BAP IC50, 10^−6 M 6-benzylaminopurine, four weeks.

The structures appear in SMILES notation. Read-outs that look alike come from different tables or passages of the source. Bounds are passed on as bounds.

The term IC50 denotes the midpoint of a concentration-inhibition curve.

Chain of cdk1/cyclin B (CDC2) (P06493 whole entry, species assumed): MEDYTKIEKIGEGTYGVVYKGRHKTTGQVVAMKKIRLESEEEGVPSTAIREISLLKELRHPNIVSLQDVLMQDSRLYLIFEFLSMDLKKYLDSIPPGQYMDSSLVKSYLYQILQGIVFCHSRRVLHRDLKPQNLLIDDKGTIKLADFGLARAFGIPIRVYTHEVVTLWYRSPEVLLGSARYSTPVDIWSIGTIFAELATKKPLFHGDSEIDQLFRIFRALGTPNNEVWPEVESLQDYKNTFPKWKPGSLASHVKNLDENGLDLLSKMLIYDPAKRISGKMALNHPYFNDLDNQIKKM
Chain of cdk1/cyclin B (CDC2) (P14635 whole entry partner, species assumed): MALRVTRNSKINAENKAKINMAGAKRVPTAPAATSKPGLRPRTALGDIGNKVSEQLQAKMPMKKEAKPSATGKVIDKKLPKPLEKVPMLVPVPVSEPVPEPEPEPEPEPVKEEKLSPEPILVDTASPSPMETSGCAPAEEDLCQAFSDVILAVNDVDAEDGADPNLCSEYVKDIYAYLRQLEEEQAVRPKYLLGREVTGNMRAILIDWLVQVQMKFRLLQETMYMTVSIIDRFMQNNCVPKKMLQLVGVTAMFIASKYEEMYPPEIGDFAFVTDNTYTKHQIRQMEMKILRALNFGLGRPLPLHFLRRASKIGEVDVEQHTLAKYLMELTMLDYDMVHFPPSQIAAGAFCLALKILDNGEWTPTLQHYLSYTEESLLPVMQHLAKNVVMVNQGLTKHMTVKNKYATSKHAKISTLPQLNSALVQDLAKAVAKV

`CC(C)c1n[nH]c2c(NCc3ccccc3)nc(NC3CCCCC3N)nc12` (centres unmarked): the IC50 in experiment [1] is 10 nM; in experiment [2], 20 nM; in experiment [3] (setting [4]), more than 50 µM; in experiment [3] (setting [5]) it was 36 µM.

As to `CC(=O)Oc1ccccc1CNc1nc(N[C@@H](CO)C(C)C)nc2c(C(C)C)n[nH]c12`, the half-maximal inhibitory concentration (IC50) in experiment [1] amounted to 6 nM; in experiment [2], 12 nM; in experiment [3] (setting [4]), 38 µM; in experiment [3] (setting [5]), 4.2 µM.

As for `CC(C)c1n[nH]c2c(NCc3c(N)cccc3Cl)nc(N[C@@H](CO)C(C)C)nc12`, the IC50 in experiment [1] amounted to 0.9 nM; in experiment [2] it was 2 nM; in experiment [3] (setting [4]), 38 µM; in experiment [3] (setting [5]), 3.7 µM.

Regarding `CC(C)c1n[nH]c2c(NCc3cccc(Cl)c3O)nc(N[C@@H](CO)C(C)C)nc12`, the IC50 in experiment [1] was 2 nM; in experiment [2], 4 nM; in experiment [3] (setting [4]), more than 50 µM; in experiment [3] (setting [5]), 9.4 µM.

As for `COc1cccc(CNc2nc(N[C@@H](CO)C(C)C)nc3c(C(C)C)n[nH]c23)c1O`, the 50% inhibitory concentration (IC50) is 6 nM in experiment [1], 15 nM in experiment [2], more than 50 µM in experiment [3] (setting [4]) and 21.6 µM in experiment [3] (setting [5]).

On to `Cc1cccc(CNc2nc(N[C@@H](CO)C(C)C)nc3c(C(C)C)n[nH]c23)c1O`, for which the IC50 in experiment [1] is 1 nM; in experiment [2], 2 nM; in experiment [3] (setting [4]), more than 50 µM; in experiment [3] (setting [5]), 10.7 µM.

On to `CC(C)c1n[nH]c2c(NCc3ccc(Cl)c(N)c3N)nc(N[C@@H](CO)C(C)C)nc12`, for which the IC50 amounted to 20 nM in experiment [1], 40 nM in experiment [2], 15.6 µM in experiment [3] (setting [4]) and 0.4 µM in experiment [3] (setting [5]).

Take `CC(=O)Oc1cccc(CNc2nc(N[C@@H](CO)C(C)C)nc3c(C(C)C)n[nH]c23)c1`: the IC50 in experiment [1] was found to be 20 nM; in experiment [2], 60 nM; in experiment [3] (setting [4]), 36 µM; in experiment [3] (setting [5]), 8.5 µM.

For `CC(C)c1n[nH]c2c(Nc3ccc(Cl)c(N)c3)nc(N[C@@H](CO)C(C)C)nc12`, the half-maximal inhibitory concentration (IC50) in experiment [1] was 1 nM; in experiment [2], 2 nM; in experiment [3] (setting [4]), 25 µM; in experiment [3] (setting [5]), 1.8 µM.

For `CC(C)c1n[nH]c2c(NCc3ccc(Cl)c(N)c3)nc(N[C@@H](CO)C(C)C)nc12`, the IC50 is 2 nM in experiment [1], 3 nM in experiment [2], more than 50 µM in experiment [3] (setting [4]) and 19.4 µM in experiment [3] (setting [5]).

For `CC(C)c1n[nH]c2c(Nc3ccc(O)c(C(=O)O)c3)nc(N[C@@H](CO)C(C)C)nc12`, the IC50 came out at 0.4 nM in experiment [1], 1 nM in experiment [2], 18 µM in experiment [3] (setting [4]) and 1.2 µM in experiment [3] (setting [5]).

Take `CC(C)c1n[nH]c2c(Nc3ccc(Cl)c(C(=O)O)c3)nc(N[C@@H](CO)C(C)C)nc12`: the IC50 in experiment [1] is 1 nM; in experiment [2], 2 nM; in experiment [3] (setting [4]), more than 50 µM; in experiment [3] (setting [5]) it was 9.6 µM.

Regarding `CC(C)c1n[nH]c2c(Nc3ccc(C(=O)O)c(Cl)c3)nc(N[C@@H](CO)C(C)C)nc12`, the IC50 in experiment [1] stood at 0.9 nM; in experiment [2], 2 nM; in experiment [3] (setting [4]), 26 µM; in experiment [3] (setting [5]) it was 1.4 µM.

As to `CC(C)c1n[nH]c2c(Nc3ccc(N)c(Cl)c3)nc(N[C@@H](CO)C(C)C)nc12`, the IC50 in experiment [1] was 2 nM; in experiment [2], 3 nM; in experiment [3] (setting [4]), 16 µM; in experiment [3] (setting [5]), 0.9 µM.

On to `CC(C)c1n[nH]c2c(Nc3ccc(Br)cc3)nc(N[C@@H](CO)C(C)C)nc12`, for which the IC50 in experiment [1] was 2 nM; in experiment [2] it was 3 nM; in experiment [3] (setting [4]), more than 50 µM; in experiment [3] (setting [5]), more than 50 µM.

Take `CC(C)c1n[nH]c2c(Nc3ccc(Cl)cc3)nc(N[C@@H](CO)C(C)C)nc12`: the IC50 in experiment [1] stood at 0.5 nM; in experiment [2], 1 nM; in experiment [3] (setting [4]) it was 24 µM; in experiment [3] (setting [5]), 2.3 µM.

In the case of `CC(C)c1n[nH]c2c(NCc3ccccc3)nc(N[C@@H](CO)C(C)C)nc12`, the IC50 was 4 nM in experiment [1], 10 nM in experiment [2], more than 50 µM in experiment [3] (setting [4]) and 14 µM in experiment [3] (setting [5]).

On to `Cc1n[nH]c2c(NCc3ccccc3)nc(N[C@@H](CO)C(C)C)nc12`, for which the half-maximal inhibitory concentration (IC50) in experiment [1] is 10 nM; in experiment [2], 20 nM; in experiment [3] (setting [4]), more than 50 µM; in experiment [3] (setting [5]) it was 28 µM.

`CC[C@H](CO)Nc1nc(NCc2ccccc2OC(C)=O)c2[nH]nc(C(C)C)c2n1`: the IC50 in experiment [1] is 100 nM; in experiment [2], 200 nM; in experiment [3] (setting [4]) it was 45 µM; in experiment [3] (setting [5]) it was 12.4 µM.

On to `CC[C@H](CO)Nc1nc(NCc2cccc(Cl)c2O)c2[nH]nc(C(C)C)c2n1`, for which the half-inhibitory concentration (IC50) in experiment [1] stood at 7 nM; in experiment [2], 12 nM; in experiment [3] (setting [4]), 46 µM; in experiment [3] (setting [5]), 6.7 µM.

As to `CC[C@H](CO)Nc1nc(NCc2cccc(OC)c2O)c2[nH]nc(C(C)C)c2n1`, the IC50 is 4 nM in experiment [1], 12 nM in experiment [2], more than 50 µM in experiment [3] (setting [4]) and 14.8 µM in experiment [3] (setting [5]).

Take `CC[C@H](CO)Nc1nc(NCc2cccc(C)c2O)c2[nH]nc(C(C)C)c2n1`: the IC50 in experiment [1] was 6 nM; in experiment [2] it was 14 nM; in experiment [3] (setting [4]), more than 50 µM; in experiment [3] (setting [5]), 12.3 µM.

`CC[C@H](CO)Nc1nc(NCc2cccc(OC(C)=O)c2)c2[nH]nc(C(C)C)c2n1`: the IC50 in experiment [1] was 70 nM; in experiment [2], 400 nM; in experiment [3] (setting [4]) it was more than 50 µM; in experiment [3] (setting [5]), 28.7 µM.

In the case of `CC[C@H](CO)Nc1nc(Nc2ccc(Cl)c(N)c2)c2[nH]nc(C(C)C)c2n1`, the IC50 in experiment [1] was 4 nM; in experiment [2], 13 nM; in experiment [3] (setting [4]), 26 µM; in experiment [3] (setting [5]) it was 1.5 µM.

In the case of `CC[C@H](CO)Nc1nc(Nc2ccc(Cl)c(C(=O)O)c2)c2[nH]nc(C(C)C)c2n1`, the concentration for half-maximal inhibition (IC50) in experiment [1] turned out to be 1 nM; in experiment [2], 2 nM; in experiment [3] (setting [4]), 28 µM; in experiment [3] (setting [5]), 1.5 µM.

Regarding `CC[C@H](CO)Nc1nc(Nc2ccc(O)c(C(=O)O)c2)c2[nH]nc(C(C)C)c2n1`, the IC50 in experiment [1] is 10 nM; in experiment [2] it was 30 nM; in experiment [3] (setting [4]), more than 50 µM; in experiment [3] (setting [5]) it was more than 50 µM.

Regarding `CC[C@H](CO)Nc1nc(Nc2ccc(N)c(Cl)c2)c2[nH]nc(C(C)C)c2n1`, the IC50 in experiment [1] was determined as 2 nM; in experiment [2] it was 9 nM; in experiment [3] (setting [4]), 48 µM; in experiment [3] (setting [5]), 8.7 µM.

As for `CC[C@H](CO)Nc1nc(Nc2ccc(C(=O)O)c(Cl)c2)c2[nH]nc(C(C)C)c2n1`, the IC50 in experiment [1] is 2 nM; in experiment [2] it was 4 nM; in experiment [3] (setting [4]), more than 50 µM; in experiment [3] (setting [5]), 12.8 µM.

As to `CC[C@H](CO)Nc1nc(Nc2cc(N)cc(Cl)c2)c2[nH]nc(C(C)C)c2n1`, the IC50 in experiment [1] came out at 4 nM; in experiment [2], 20 nM; in experiment [3] (setting [4]) it was 36 µM; in experiment [3] (setting [5]) it was 2.8 µM.

As for `CC[C@H](CO)Nc1nc(Nc2ccc(Br)cc2)c2[nH]nc(C(C)C)c2n1`, the IC50 in experiment [1] is 2 nM; in experiment [2] it was 10 nM; in experiment [3] (setting [4]) it was 38 µM; in experiment [3] (setting [5]), 4.3 µM.

For the compound `CC[C@H](CO)Nc1nc(Nc2ccc(Cl)cc2)c2[nH]nc(C(C)C)c2n1`, the IC50 in experiment [1] is 3 nM; in experiment [2], 9 nM; in experiment [3] (setting [4]), 35 µM; in experiment [3] (setting [5]) it was 3.9 µM.

`CC[C@H](CO)Nc1nc(Nc2ccccc2)c2[nH]nc(C(C)C)c2n1`: the IC50 worked out at 20 nM in experiment [1], 110 nM in experiment [2], 48 µM in experiment [3] (setting [4]) and 6.2 µM in experiment [3] (setting [5]).

Consider `CC[C@H](CO)Nc1nc(NCc2ccccc2)c2[nH]nc(C(C)C)c2n1`, for which the IC50 in experiment [1] is 10 nM; in experiment [2] it was 30 nM; in experiment [3] (setting [4]), more than 50 µM; in experiment [3] (setting [5]), 28 µM.

Turning to `CC[C@H](CO)Nc1nc(NCc2ccccc2)c2[nH]nc(C)c2n1`, the IC50 in experiment [1] is 100 nM; in experiment [2] it was 300 nM; in experiment [3] (setting [4]) it was more than 50 µM; in experiment [3] (setting [5]), 37 µM.

Consider `Cc1n[nH]c2c(NCc3ccccc3)nc(NCCN)nc12` [2-aminoethylamino; benzylamino; methyl], for which the IC50 is 2000 nM in experiment [1], 5000 nM in experiment [2], more than 50 µM in experiment [3] (setting [4]) and more than 50 µM in experiment [3] (setting [5]).
